Measurements taken from US9012433B2, “Substituted tetracycline compounds” (Paratek Pharmaceuticals, Inc., priority 2006, dated 2015).
Converted amounts (≈) assume the structure as drawn. Like-named read-outs stand apart in the source and are kept apart here.

How the values were obtained:
Type in all cases: cell-based
[1] = test system: E. coli ATCC 25922; experiment: Antibacterial MIC, CLSI broth microdilution; conditions: Escherichia coli, ATCC25922; 35° C., 18-24 hours
Protocol: (§1) Grain (−) and gram (+) antibacterial minimum inhibitory concentration (MIC) values (μg/mL) were obtained using CLSI methodology for anti-bacterial susceptibility testing. On each day of testing, serial dilutions of compounds were prepared in microdilution plates using a Tecan robotic workstation. Mueller Hinton broth cultures of representative sensitive and resistant gram negative strains were grown or adjusted to match the turbidity of a 0.5 McFarland standard. 1:200 dilutions were made in an appropriate broth (cation supplemented Mueller Hinton broth) to allow a final inoculum of 1×10^5 cfu. Plates were incubated at 35° C. in ambient air for 18-24 hours, were read spectrophotometrically and checked manually for evidence of bacterial growth. The lowest dilution of compound that inhibited growth was recorded as the MIC. Lysed horse blood was used to supplement broth for testing S. pneumoniae. The MIC's for each compound were assessed against S. aureus, S. pneumoniae, P. acnes, E. coli and B. theta.

[2] = test system: B. thetaiotaomicron ATCC 29741; experiment: Antibacterial MIC, CLSI broth microdilution; conditions: Bacteroides thetaiotaomicron
Protocol: as §1

[3] = test system: E. coli MG 1655; experiment: Antibacterial MIC, CLSI broth microdilution; conditions: Escherichia coli, MG1655; 35° C., 18-24 hours
Protocol: as §1

[4] = test system: P. acnes ATCC 11827; experiment: Antibacterial MIC, CLSI broth microdilution; conditions: Cutibacterium acnes, ATCC11827; 35° C., 18-24 hours
Protocol: as §1

[5] = test system: S. pneumoniae 157E - Strep; experiment: Antibacterial MIC, CLSI broth microdilution; conditions: Streptococcus pneumoniae, 157ESTREP; 35° C., 18-24 hours; lysed horse blood
Protocol: as §1

[6] = test system: S. aureus RN450; experiment: Antibacterial MIC, CLSI broth microdilution; conditions: Staphylococcus aureus, RN450; 35° C., 18-24 hours
Protocol: as §1

[7] = test system: P. acnes ATCC 6919; experiment: Antibacterial MIC, CLSI broth microdilution; conditions: Cutibacterium acnes, ATCC6919; 35° C., 18-24 hours
Protocol: as §1

[8] = in vitro
Protocol: Mammalian cell cytotoxicity was assessed to evaluate potential in vivo risks associated with the tetracycline compounds of the invention. A soluble, non-toxic redox dye (“Resazurin”; Alamar Blue) was used to assess a tetracycline compound's effect on cellular metabolism. At the onset of the experiment, cultures of mammalian COS-1 or CHO cells were washed, trypsinized, and harvested. […] On the next day, serial dilutions of test drug were prepared under sterile conditions and transferred to cell plates. Plates were then incubated under the above conditions for 24 hours. Following the incubation period, the media/drug was aspirated, and 50 μL of resazurin was added. Plates were then incubated under the above conditions for 2 hours and then in the dark at room temperature for an additional 30 minutes. Fluorescence measurements were taken (excitation 535 nm, emission 590 nm) and toxic effects in treated versus control cells were compared based on the degree of fluorescence in each well.

[9] = ATCC29741, 35° C., 18-24 hours, read-out: MIC B. thetaiotaomicron ATCC 29741

SMILES | MIC [1] [µg/mL] | MIC [2, 9] [µg/mL] | MIC [3] [µg/mL] | MIC [4] [µg/mL] | MIC [5] [µg/mL] | MIC [6] [µg/mL] | MIC [7] [µg/mL] | IC50 at 24 h ([8]; African green monkey) [µg/mL] | IC50 at 24 h ([8]; Chinese hamster) [µg/mL] | MIC ([2]; ATCC29741, read-out: MIC B. thetaiotaomicron ATCC 29741) [µg/mL]
CN(C)[C@@H]1C(O)=C(C(N)=O)C(=O)[C@@]2(O)C(O)=C3C(=O)c4c(O)ccc(/C=N/n5cccc5)c4C[C@H]3C[C@@H]12 [AC, (4S,4aS,5aR,12aS)-4-Dimethylamino-3,10,12,12a-tetrahydroxy-1,11-dioxo-7-(pyrrol-1-yliminomethyl)-1,4,4a,5,5a,6,11,12a-octahydro-naphthacene-2-carboxylic acid amide] | 4 to 8 (≈ 7.9 to 15.8 µM) | 4 to 8 (≈ 7.9 to 15.8 µM) | > 8 | < 4 | < 4 | < 4 | < 4 | < 35 | < 35 | 
CN(C)[C@@H]1C(O)=C(C(N)=O)C(=O)[C@@]2(O)C(O)=C3C(=O)c4c(O)ccc(/C=N/NC(C)(C)C)c4C[C@H]3C[C@@H]12 [X] | < 4 | < 4 | < 4 | < 4 | < 4 | < 4 | < 4 | < 35 | < 35 | 
CN(C)[C@@H]1C(O)=C(C(N)=O)C(=O)[C@@]2(O)C(O)=C3C(=O)c4c(O)ccc(CN5CCCCO5)c4C[C@H]3C[C@@H]12 [DR] | 4 to 8 (≈ 7.79 to 15.6 µM) | 4 to 8 (≈ 7.79 to 15.6 µM) | > 8 | < 4 | < 4 | < 4 | < 4 | 35 to 75 (≈ 68.2 to 146 µM) | 35 to 75 (≈ 68.2 to 146 µM) | 
CN(C)[C@H]1C(O)=C(C(N)=O)C(=O)[C@@]2(O)C(O)=C3C(=O)c4cccc(-c5ncccn5)c4C[C@H]3C[C@@H]12 [H] | > 8 | > 8 | > 8 | 4 to 8 (≈ 8.39 to 16.8 µM) | < 4 | < 4 | 4 to 8 (≈ 8.39 to 16.8 µM) | > 75 | > 75 | 
CON(C)Cc1ccc2c(c1O)C(=O)C1=C(O)[C@]3(O)C(=O)C(C(N)=O)=C(O)[C@@H](N(C)C)[C@@H]3C[C@@H]1C2 [GL] | > 8 |  | > 8 | 4 to 8 (≈ 8.2 to 16.4 µM) | 4 to 8 (≈ 8.2 to 16.4 µM) | 4 to 8 (≈ 8.2 to 16.4 µM) | 4 to 8 (≈ 8.2 to 16.4 µM) | 35 to 75 (≈ 71.8 to 154 µM) | 35 to 75 (≈ 71.8 to 154 µM) | 4 to 8 (≈ 8.2 to 16.4 µM)
CCO/N=C(/CCN(C)C)c1ccc(O)c2c1C[C@H]1C[C@H]3[C@@H](N(C)C)C(O)=C(C(N)=O)C(=O)[C@@]3(O)C(O)=C1C2=O [AN, (4R,4aS,5aR,12aS)-4-Dimethylamino-7-(3-dimethylamino-1-ethoxyimino-propyl)-3,10,12,12a-tetrahydroxy-1,11-dioxo-1,4,4a,5,5a,6,11,12a-octahydro-naphthacene-2-carboxylic acid amide] | < 4 | 4 to 8 (≈ 7.19 to 14.4 µM) | < 4 | < 4 | < 4 | < 4 | < 4 | > 75 | > 75 | 
CN(C)[C@@H]1C(O)=C(C(N)=O)C(=O)[C@@]2(O)C(O)=C3C(=O)c4c(O)ccc(-c5ccc[nH]5)c4C[C@H]3C[C@@H]12 [T, (4S,4aS,5aR,12aS)-4-Dimethylamino-3,10,12,12a-tetrahydroxy-1,11-dioxo-7-(1H-pyrrol-2-yl)-1,4,4a,5,5a,6,11,12a-octahydro-naphthacene-2-carboxylic acid amide] | < 4 | 4 to 8 (≈ 8.34 to 16.7 µM) | < 4 | < 4 | < 4 | < 4 | < 4 | < 35 | < 35 | 
CN(C)CC/C(=N\OC(C)(C)C)c1ccc(O)c2c1C[C@H]1C[C@H]3[C@H](N(C)C)C(O)=C(C(N)=O)C(=O)[C@@]3(O)C(O)=C1C2=O [O] | < 4 | < 4 | < 4 | < 4 | < 4 | < 4 | < 4 | 35 to 75 (≈ 59.9 to 128 µM) | < 35 | 
CN(C)[C@@H]1C(O)=C(C(N)=O)C(=O)[C@@]2(O)C(O)=C3C(=O)c4c(O)ccc(-c5nccs5)c4C[C@H]3C[C@@H]12 [L] | < 4 | < 4 | < 4 | < 4 | < 4 | < 4 | < 4 | < 35 | < 35 | 
C=CCN(Cc1ccc(O)c2c1C[C@H]1C[C@H]3[C@H](N(C)C)C(O)=C(C(N)=O)C(=O)[C@@]3(O)C(O)=C1C2=O)C(=O)OC [F] | > 8 | 4 to 8 (≈ 7.39 to 14.8 µM) | > 8 | < 4 | < 4 | < 4 | < 4 | < 35 | < 35 | 
CCONCc1ccc(O)c2c1C[C@H]1C[C@H]3[C@@H](N(C)C)C(O)=C(C(N)=O)C(=O)[C@@]3(O)C(O)=C1C2=O [AM] | > 8 | 4 to 8 (≈ 8.2 to 16.4 µM) | > 8 | < 4 | 4 to 8 (≈ 8.2 to 16.4 µM) | 4 to 8 (≈ 8.2 to 16.4 µM) | < 4 | > 75 | > 75 | 
CN(C)[C@@H]1C(O)=C(C(N)=O)C(=O)[C@@]2(O)C(O)=C3C(=O)c4c(O)ccc(CN5OCCC5=N)c4C[C@H]3C[C@@H]12 [EC] | > 8 |  | > 8 |  | < 4 | < 4 |  |  |  | 
CN(C)[C@@H]1C(O)=C(C(N)=O)C(=O)[C@@]2(O)C(O)=C3C(=O)c4cccc(-c5ncccn5)c4C[C@H]3C[C@@H]12 [S] | > 8 | > 8 | > 8 | 4 to 8 (≈ 8.39 to 16.8 µM) | < 4 | < 4 | 4 to 8 (≈ 8.39 to 16.8 µM) | > 75 | > 75 | 
CN(C)[C@@H]1C(O)=C(C(N)=O)C(=O)[C@@]2(O)C(O)=C3C(=O)c4c(O)ccc(-c5ncco5)c4C[C@H]3C[C@@H]12 [J] | < 4 | < 4 | < 4 | < 4 | < 4 | < 4 | < 4 | < 35 | < 35 | 
C/C(=N\OCC(F)(F)F)c1cc(N)c(O)c2c1C[C@H]1C[C@H]3[C@H](N(C)C)C(O)=C(C(N)=O)C(=O)[C@@]3(O)C(O)=C1C2=O [DT, (4S,4aS,5aR,12aS)-9-Amino-4-dimethylamino-3,10,12,12a-tetrahydroxy-1,1,1-dioxo-7-[1-(2,2,2-trifluoro-ethoxyimino)-ethyl]-1,4,4a,5,5a,6,11,12a-octahydro-naphthacene-2-carboxylic acid amide] | 4 to 8 (≈ 7.04 to 14.1 µM) | 4 to 8 (≈ 7.04 to 14.1 µM) | 4 to 8 (≈ 7.04 to 14.1 µM) | < 4 | < 4 | < 4 | < 4 |  |  | 
C/C(=N\OC(C)(C)C)c1cc(N)c(O)c2c1C[C@H]1C[C@H]3[C@@H](N(C)C)C(O)=C(C(N)=O)C(=O)[C@@]3(O)C(O)=C1C2=O [R] | > 8 | 4 to 8 (≈ 7.37 to 14.7 µM) | > 8 | < 4 | < 4 | < 4 | < 4 | < 35 | < 35 | 
CCO/N=C(\C)CN(C)Cc1ccc(O)c2c1C[C@H]1C[C@H]3[C@H](N(C)C)C(O)=C(C(N)=O)C(=O)[C@@]3(O)C(O)=C1C2=O [AL, (4S,4aS,5aR,12aS)-4-Dimethylamino-7-[(2-ethoxyimino-propyl)-methyl-amino]-methyl-3,10,12,12a-tetrahydroxy-1,11-dioxo-1,4,4a,5,5a,6,11,12a-octahydro-naphthacene-2-carboxylic acid amide] | 4 to 8 (≈ 7.19 to 14.4 µM) | 4 to 8 (≈ 7.19 to 14.4 µM) | 4 to 8 (≈ 7.19 to 14.4 µM) | < 4 | < 4 | < 4 | < 4 | < 35 | < 35 | 
CN(C)[C@H]1C(O)=C(C(N)=O)C(=O)[C@@]2(O)C(O)=C3C(=O)c4c(O)ccc(CNOCCF)c4C[C@H]3C[C@@H]12 [EB] | > 8 | 4 to 8 (≈ 7.91 to 15.8 µM) | > 8 | < 4 | 4 to 8 (≈ 7.91 to 15.8 µM) | < 4 | < 4 |  |  | 
